Assay results reported in patent US4617184A, “99m Tc-1,2-dihydroxy-1,2-bis(dihydroxyphosphinyl)ethane complex for skeleton scanning” (priority 1984, dated 1986).

Assays:
[1] = Acute and chronic toxicity of DHPE in rodents; assay type: in vivo; conditions: injected doses 5 to 250 mg per kg of body weight
Excerpt: The amount of complexing agent required to be injected into a test animal or human patient for a satisfactory skeleton scintigraphy is three orders of magnitude smaller than the highest tested dose.

[2] = Organ distribution of ^99m Tc-DHPE (freeze dried kit) in rats, i.v. tail vein; assay type: in vivo, Hooded strain rats; parameters: Dose per Organ: unit not given here
Description: Twenty five milliliters of a sterile aqueous solution of 55.5 mg of DHPE were mixed with 12.5 mL of a freshly prepared sterile aqueous solution containing 0.1 mg of SnCl2 per milliliter and with 12.5 mL of a sterile aqueous solution of sodium acetate 10% W/V. Portions of 2 mL each of the resulting solution were transferred through a Millipore filter of 0.22 micron pore size into pharmaceutical vials. The vials were freeze dried for 24 hours and were sealed in vacuum. Four milliliters of saline solution of Na^+99m TcO4^- (20 millicuries Tc-99m) were added to each vial. The vial was vigorously shaken, and then allowed to stand for five minutes at normal ambient temperature.
Two hundred fifty microliters of the above solution of the radiopharmaceutical ^99m Tc-DHPE were injected i.v. (intravenously) in the tail vein of each of six Hooded strain, closed colony, random breeding rats. The rats were sacrificed at the following time periods 1 hr, 2 hr, 4 hr, 6 hr, 12 hr, and 24 hrs. The organs of each rat were isolated and the distribution of Tc-99m determined by assay with a single channel analyzer equipped with a well type NaI(T1) scintillation detector.
The experimental error in the distribution vs. time data for the ^99m Tc-DHPE complex was minimized by averaging six runs under identical conditions, always with the Hooded strain rats. The effect of organ geometry on radioactivity counting efficiency was taken into account. Corrections were also made so that, upon extrapolation back to time zero, the summation of activity in the organs was equal to the injected activity (i.e. by comparison to standards).

[3] = Gamma camera bone imaging in anesthetized rabbit; assay type: in vivo
Description: Two milliliters of a sterile saline solution of Na^+99m TcO4^- (IO millicuries Tc-99m) were added to a pharmaceutical vial containing 2 mL of a sterile aqueous solution containing 2.2 mg of DHPE, 50μg of SnCl2 and 50 mg of CH3 COONa. The vial was vigorously shaken, then allowed to stand for five minutes at room temperature. Paper chromatography of the solution was run according to the method outlined in Example 1 and only 2% unreacted pertechnetate was found.
Bone imaging was carried out by intravenous injection of 0.5 milliliters of this solution into the ear vein of an anesthetized rabbit positioned under a gamma camera. […] As time passed the quality of the images improved. […] Less than 30% of the initial radioactivity in the blood was detected in the blood 30 minutes after injection.

[4] = Distribution in rats of the complex prepared by electrochemical reduction; assay type: in vivo, Hooded strain rats; conditions: i.v. tail vein, electrochemically prepared complex
Description: Four milliliters of a sterile aqueous solution containing 1.5 mg of DHPE, 20 mg of CH3 COONa and 10 mCi of Na^+99m TcO4^- were added to a sterile cell equipped with tin electrodes. An electrical charge of 5×10^-2 coulombs (20 sec×2.5 mA) was passed through to produce the ^99m Tc-DHPE complex. Paper chromatography of the solution was run according to the method outlined in Example 1. The determined radiochemical purity of the ^99m Tc-DHPE compound was 98%. The complex was assayed by intravenous injections into the tail veins of Hooded strain rats as in Example 1, the animals being sacrificed at 1, 2, 4, 6, 12, and 24 hours.

## O=P(O)(O)C(O)C(O)P(=O)(O)O (centres unmarked) [DHPE, 1,2-dihydroxy-1,2-bis(dihydroxyphosphinyl)ethane]
[1]
  deaths or adverse effects (acute and chronic toxicity): no deaths or adverse effects

## ^99m Tc-1,2-Dihydroxy-1,2-bis(dihydroxyphosphinyl)ethane Complex [^99m Tc-DHPE]
[2]; ADRENALS, 1 hr
  Dose per Organ: 0.006 ± 0.006
[2]; ADRENALS, 2 hr
  Dose per Organ: 0.007 ± 0.005
[2]; ADRENALS, 4 hr
  Dose per Organ: 0.003 ± 0.001
[2]; ADRENALS, 6 hr
  Dose per Organ: 0.003 ± 0.001
[2]; ADRENALS, 12 hr
  Dose per Organ: 0.001 ± 0.000
[2]; ADRENALS, 24 hr
  Dose per Organ: 0.001 ± 0.000
[2]; BLOOD, 1 hr
  Dose per Organ: 0.742 ± 0.384
[2]; BLOOD, 2 hr
  Dose per Organ: 0.895 ± 0.515
[2]; BLOOD, 4 hr
  Dose per Organ: 0.643 ± 0.414
[2]; BLOOD, 6 hr
  Dose per Organ: 0.322 ± 0.067
[2]; BLOOD, 12 hr
  Dose per Organ: 0.312 ± 0.209
[2]; BLOOD, 24 hr
  Dose per Organ: 0.104 ± 0.015
[2]; BONE, 1 hr
  Dose per Organ: 44.426 ± 2.556
[2]; BONE, 2 hr
  Dose per Organ: 45.722 ± 3.411
[2]; BONE, 4 hr
  Dose per Organ: 53.447 ± 2.828
[2]; BONE, 6 hr
  Dose per Organ: 47.673 ± 6.612
[2]; BONE, 12 hr
  Dose per Organ: 42.362 ± 4.449
[2]; BONE, 24 hr
  Dose per Organ: 43.317 ± 2.825
[2]; FECES, 1 hr
  Dose per Organ: 0.034 ± 0.054
[2]; FECES, 2 hr
  Dose per Organ: 0.053 ± 0.088
[2]; FECES, 4 hr
  Dose per Organ: 0.394 ± 0.343
[2]; FECES, 6 hr
  Dose per Organ: 0.570 ± 0.205
[2]; FECES, 12 hr
  Dose per Organ: 0.848 ± 0.601
[2]; FECES, 24 hr
  Dose per Organ: 3.149 ± 1.799
[2]; HEART, 1 hr
  Dose per Organ: 0.022 ± 0.008
[2]; HEART, 2 hr
  Dose per Organ: 0.026 ± 0.012
[2]; HEART, 4 hr
  Dose per Organ: 0.018 ± 0.008
[2]; HEART, 6 hr
  Dose per Organ: 0.015 ± 0.004
[2]; HEART, 12 hr
  Dose per Organ: 0.011 ± 0.005
[2]; HEART, 24 hr
  Dose per Organ: 0.006 ± 0.001
[2]; KIDNEYS, 1 hr
  Dose per Organ: 1.523 ± 0.371
[2]; KIDNEYS, 2 hr
  Dose per Organ: 1.782 ± 0.365
[2]; KIDNEYS, 4 hr
  Dose per Organ: 1.441 ± 0.277
[2]; KIDNEYS, 6 hr
  Dose per Organ: 2.716 ± 0.365
[2]; KIDNEYS, 12 hr
  Dose per Organ: 3.018 ± 0.825
[2]; KIDNEYS, 24 hr
  Dose per Organ: 1.187 ± 0.119
[2]; LARGE INTESTINE, 1 hr
  Dose per Organ: 1.548 ± 1.380
[2]; LARGE INTESTINE, 2 hr
  Dose per Organ: 2.210 ± 1.789
[2]; LARGE INTESTINE, 4 hr
  Dose per Organ: 2.906 ± 3.009
[2]; LARGE INTESTINE, 6 hr
  Dose per Organ: 3.209 ± 0.684
[2]; LARGE INTESTINE, 12 hr
  Dose per Organ: 0.648 ± 0.615
[2]; LARGE INTESTINE, 24 hr
  Dose per Organ: 0.415 ± 0.448
[2]; LIVER, 1 hr
  Dose per Organ: 0.095 ± 0.018
[2]; LIVER, 2 hr
  Dose per Organ: 0.184 ± 0.049
[2]; LIVER, 4 hr
  Dose per Organ: 0.187 ± 0.032
[2]; LIVER, 6 hr
  Dose per Organ: 0.168 ± 0.044
[2]; LIVER, 12 hr
  Dose per Organ: 0.131 ± 0.022
[2]; LIVER, 24 hr
  Dose per Organ: 0.134 ± 0.030
[2]; LUNGS, 1 hr
  Dose per Organ: 0.104 ± 0.033
[2]; LUNGS, 2 hr
  Dose per Organ: 0.149 ± 0.105
[2]; LUNGS, 4 hr
  Dose per Organ: 0.121 ± 0.029
[2]; LUNGS, 6 hr
  Dose per Organ: 0.032 ± 0.007
[2]; LUNGS, 12 hr
  Dose per Organ: 0.022 ± 0.015
[2]; LUNGS, 24 hr
  Dose per Organ: 0.044 ± 0.024
[2]; MUSCLE, 1 hr
  Dose per Organ: 1.138 ± 0.511
[2]; MUSCLE, 2 hr
  Dose per Organ: 2.371 ± 1.206
[2]; MUSCLE, 4 hr
  Dose per Organ: 2.193 ± 0.974
[2]; MUSCLE, 6 hr
  Dose per Organ: 4.216 ± 2.815
[2]; MUSCLE, 12 hr
  Dose per Organ: 2.139 ± 0.389
[2]; MUSCLE, 24 hr
  Dose per Organ: 2.699 ± 1.989
[2]; SMALL INTESTINE, 1 hr
  Dose per Organ: 0.963 ± 0.868
[2]; SMALL INTESTINE, 2 hr
  Dose per Organ: 1.963 ± 2.085
[2]; SMALL INTESTINE, 4 hr
  Dose per Organ: 1.009 ± 1.243
[2]; SMALL INTESTINE, 6 hr
  Dose per Organ: 0.495 ± 0.205
[2]; SMALL INTESTINE, 12 hr
  Dose per Organ: 0.318 ± 0.113
[2]; SMALL INTESTINE, 24 hr
  Dose per Organ: 0.091 ± 0.033
[2]; SPLEEN, 1 hr
  Dose per Organ: 0.020 ± 0.007
[2]; SPLEEN, 2 hr
  Dose per Organ: 0.026 ± 0.007
[2]; SPLEEN, 4 hr
  Dose per Organ: 0.020 ± 0.003
[2]; SPLEEN, 6 hr
  Dose per Organ: 0.022 ± 0.007
[2]; SPLEEN, 12 hr
  Dose per Organ: 0.008 ± 0.002
[2]; SPLEEN, 24 hr
  Dose per Organ: 0.010 ± 0.004
[2]; STOMACH, 1 hr
  Dose per Organ: 0.288 ± 0.137
[2]; STOMACH, 2 hr
  Dose per Organ: 0.388 ± 0.176
[2]; STOMACH, 4 hr
  Dose per Organ: 0.226 ± 0.243
[2]; STOMACH, 6 hr
  Dose per Organ: 0.152 ± 0.148
[2]; STOMACH, 12 hr
  Dose per Organ: 0.082 ± 0.023
[2]; STOMACH, 24 hr
  Dose per Organ: 0.040 ± 0.029
[2]; URINE, 1 hr
  Dose per Organ: 28.584 ± 5.562
[2]; URINE, 2 hr
  Dose per Organ: 28.295 ± 1.829
[2]; URINE, 4 hr
  Dose per Organ: 31.469 ± 4.991
[2]; URINE, 6 hr
  Dose per Organ: 24.033 ± 5.995
[2]; URINE, 12 hr
  Dose per Organ: 6.519
[2]; URINE, 24 hr
  Dose per Organ: 8.600
[2]; rats, i.v.
  excretion: mainly via the kidneys to urine
  removal from the blood: fast removal
[2]; rats, i.v., in comparison to other organs or tissues
  concentration to the skeleton: fast and high concentration to the skeleton
[3]; 30 minutes after injection
  initial radioactivity in the blood detected in the blood: Less than 30%
[3]; i.v. ear vein
  removal of the radiopharmaceutical from the blood: fast removal
[3]; i.v. ear vein, 1 to 2.5 hrs post injection
  quality of skeleton images: Excellent images of the skeleton
[3]; i.v. ear vein, thirty minutes post injection
  skeleton visualization: clearly visualized
[4]
  excretion: mainly to the urine
  skeleton uptake: rapid skeleton uptake
[4]; effect on bone specificity
  uptake by other organs: did not detract significantly from bone specificity
